Data on 18 molecules can be found in patent US10253004B2, “Indanylaminopyrazinylcyclopropanecarboxylic acids, pharmaceutical compositions and uses thereof” (Boehringer Ingelheim International GmbH, priority 2017, dated 2019).

Converted amounts (≈) assume the structure as drawn. Where two headings read alike, the source gives them in different places.

Data set [1] can be described thus: Aqueous solubility in buffer vs acetonitrile/water, LC-UV. In kind it is physicochemical. Conditions: kinetic from dmso stock, pH 6.8 buffer, 24 h shaking, 2.5% DMSO. As for the experimental part: The aqueous solubility of the compounds of the invention is determined by comparing the amount dissolved in buffer to the amount in an acetonitrile/water (1/1) solution. Starting from a 10 mM DMSO stock solution aliquots are diluted with acetonitrile/water (1/1) or buffer, respectively. After 24 h of shaking, the solutions are filtrated and analyzed by LC-UV. The amount dissolved in buffer is compared to the amount in the acetonitrile solution.
Solubility is usually being measured from 0.001 to 0.125 mg/mL at a DMSO concentration of 2.5%. If more than 90% of the compound is dissolved in buffer, the value is marked with “>”.

Data set [2] can be described thus: Chemical stability (degradation kinetics) in acidic aqueous media, HPLC recovery. The note with it: for Amount of degradation after 2 h: pH ca. 1.2, 37° C., acetonitrile/0.1 M aqueous HCl (2:3); for Chemical stability at pH ca. 1.2: degradation after 2 h at 37° C.: pH ca. 1.2, 2 h. It counts as physicochemical. As for the experimental part:
Degradation kinetics is used to simulate chemical stability of compounds in the acidic part of the gastro intestinal tract. […] Their application as medical drugs to treat human diseases is therefore less restricted and troublesome.
The chemical stability of the compounds of the invention at pH value of ca. 1.2 is determined as follows:
Compound is dissolved in an HPLC vial either in a mixture of acetonitrile/0.1 M aqueous HCl (2:3; pH ca. 1.2) or in a mixture of acetonitrile/Mcllvaine buffer pH 7.4 (2:3) to get a concentration of approximately 0.25 mg/ml. The vial was then transferred into an HPLC autosampler system and maintained at a temperature of 37° C. A first sample is taken and injected immediately into a standard HPLC system with a UV DAD detector. Further samples are injected after 2, 4, 6, 8 and 10 hours. Amount of degraded compound is measured by determining the recovery rate of compound [%] for each injection using an HPLC standard gradient method. Therefore the peak area of the main peak for the first injection (AUt0) is determined and set as 100%. Peak area of the main peak is determined also for the further injections (AUtn, n=2, 4, 6, 8, 10) and expressed as fraction of […] [%].

The target of data set [3] is cytochrome P450 2C8-isoenzyme (Homo sapiens (Human), UniProt P10632). In words: Inhibition of CYP-2C8 (amodiaquine deethylation, human liver microsomes). It counts as in vitro ADME. Conditions: amodiaquine 1 μM, 37° C. On the procedure:
(§1) All assays are carried out on a robotic system in 96 well plates. The final incubation volume contains TRIS buffer (0.1 M), MgCl2 (5 mM), human liver microsomes (0.05 mg/mL), amodiaquine (1 μM) and the test compound at five different concentrations or no compound (high control) in duplicate (e.g. highest concentration 10-50 μM with subsequent serial 1:4 dilutions). Following a short preincubation period, reactions are started with the cofactor (NADPH, 1 mM) and stopped by cooling the incubation down to 8° C. and subsequently by addition of one volume of acetonitrile. An internal standard solution—the stable isotope d5-desethylamodiaquine—is added after quenching of incubations. Peak area analyte (=metabolite formed) and internal standard is determined by LC-MS/MS. The resulting peak area ratio analyte to internal standard in these incubations is compared to a control activity containing no test compound. Within each of the assay runs, the IC50 of a positive control inhibitor (Montelukast) is determined.

In data set [4] the target is human GPR40 receptor (Homo sapiens (Human), UniProt O14842). The data set is described as follows: IP1 accumulation measurements using the IPOne assay system. In kind it is cell-based. As for the experimental part:
IP1 accumulation measurements using the IPOne assay system—1321N1 cells stably expressing human GPR40 receptor (Euroscreen, Belgium) are seeded 24 h before the assay in white 384-well plates in culture medium containing 10% FCS, 1% Na-Pyruvate and 400 μg/mL G418. IP1 is assayed according to the manufacturer's description (Cisbio Bioassays, France). In brief, the assay is started by substitution of the culture medium by stimulation buffer (Hepes 10 mM, CaCl2 1 mM, MgCl2 0.5 mM, KCl 4.2 mM, NaCl 146 mM, glucose 5.5 mM and LiCl 50 mM, pH 7.4). Cells are stimulated for 1 h at 37° C., 5% CO2 by addition of the compounds that are diluted in stimulation buffer containing LiCl. Assays are stopped by adding HTRF-conjugates (IP1-d2 and Anti-IP1 cryptate Tb) and lysis buffer, provided by the manufacturer. After an incubation time of 1 h at room temperature plates are measured using an EnVision™, Perkin Elmer. The obtained fluorescence ratios at 665/615 […] are then used to calculate the pEC50 values using Assay Explorer 3.3 Software (Accelrys, Inc.) by interpolation using an IP1 reference curve and subsequent sigmoidal curve fitting allowing for a variable hill slope.

Data set [5] has as its target cytochrome P450 2C9-isoenzyme (Homo sapiens (Human), UniProt P11712). The data set is described as follows: Inhibition of CYP-2C9 (diclofenac hydroxylation, human liver microsomes). It counts as in vitro ADME. The note with it: diclofenac 10 μM, 37° C. As for the experimental part:
as §1, with “(0.1” for “(0.05”, “diclofenac (10” for “amodiaquine (1”, “(e.g.,” for “(e.g.”, “^13C6-hydroxydiclofenac—is” for “d5-desethylamodiaquine—is”, “(sulfaphenazole)” for “(Montelukast)”

Setting [6] is: given as IC50, own-compound values equal the EC50 of Table 2, read-out: GPR40: IC50.
[7] abbreviates: 1321N1 cells stably expressing human GPR40, IP1 accumulation, read-out: EC50.

Chain of human GPR40 receptor (O14842 whole entry): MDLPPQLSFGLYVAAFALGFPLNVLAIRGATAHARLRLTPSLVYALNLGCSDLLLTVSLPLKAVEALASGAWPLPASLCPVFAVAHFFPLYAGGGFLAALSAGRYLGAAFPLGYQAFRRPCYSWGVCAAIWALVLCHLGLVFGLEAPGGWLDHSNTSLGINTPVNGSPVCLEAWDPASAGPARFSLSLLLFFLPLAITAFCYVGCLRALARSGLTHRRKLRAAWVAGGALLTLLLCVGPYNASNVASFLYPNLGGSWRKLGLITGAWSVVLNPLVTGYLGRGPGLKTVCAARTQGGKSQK
Chain of cytochrome P450 2C9-isoenzyme (P11712 whole entry): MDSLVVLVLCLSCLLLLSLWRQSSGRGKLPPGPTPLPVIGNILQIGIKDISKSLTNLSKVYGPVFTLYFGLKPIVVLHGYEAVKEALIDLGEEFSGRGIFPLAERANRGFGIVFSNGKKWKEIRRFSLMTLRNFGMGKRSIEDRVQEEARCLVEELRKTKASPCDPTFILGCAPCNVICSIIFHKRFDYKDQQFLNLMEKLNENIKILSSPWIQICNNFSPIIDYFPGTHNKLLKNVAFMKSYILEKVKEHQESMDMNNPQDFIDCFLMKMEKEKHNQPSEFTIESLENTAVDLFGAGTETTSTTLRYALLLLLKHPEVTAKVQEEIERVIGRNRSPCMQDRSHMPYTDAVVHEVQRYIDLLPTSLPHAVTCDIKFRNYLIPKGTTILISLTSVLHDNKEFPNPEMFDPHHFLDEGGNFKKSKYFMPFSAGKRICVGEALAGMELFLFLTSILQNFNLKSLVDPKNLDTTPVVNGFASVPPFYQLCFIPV
Chain of cytochrome P450 2C8-isoenzyme (P10632 whole entry): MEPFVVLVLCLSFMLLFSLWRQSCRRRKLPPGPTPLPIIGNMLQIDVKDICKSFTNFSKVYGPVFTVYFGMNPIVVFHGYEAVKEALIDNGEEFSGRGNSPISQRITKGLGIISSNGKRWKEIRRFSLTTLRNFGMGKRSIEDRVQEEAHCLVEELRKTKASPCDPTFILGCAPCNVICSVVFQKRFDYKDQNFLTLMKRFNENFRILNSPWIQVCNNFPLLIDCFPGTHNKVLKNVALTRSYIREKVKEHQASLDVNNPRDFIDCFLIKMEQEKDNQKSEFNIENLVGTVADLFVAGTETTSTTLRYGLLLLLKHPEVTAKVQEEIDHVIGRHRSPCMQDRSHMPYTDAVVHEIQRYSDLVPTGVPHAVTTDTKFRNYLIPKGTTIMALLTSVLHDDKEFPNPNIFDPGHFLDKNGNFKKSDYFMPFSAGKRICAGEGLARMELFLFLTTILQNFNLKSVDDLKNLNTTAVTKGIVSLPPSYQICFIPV

In data set [1] (buffer pH 6.8, aqueous buffer), `Cc1cc(OCCC(C)(C)O)cc(C)c1-c1ccc(F)c2c1CC[C@H]2Oc1ccc([C@H]2C[C@@H]2C(=O)O)cc1` [Example 17 in WO 2013/178575, reference compound] displayed a solubility at 24 h of less than 1 µg/mL. Besides, in data set [2], the “Amount of degradation after 2 h” value is 8% and the “Chemical stability at pH ca. 1.2: degradation after 2 h at 37° C.” value (shortened to “Chemical stability”) amounted to 8%.
Turning to `Cc1cc(OCCCS(C)(=O)=O)cc(C)c1-c1ccc(F)c2c1CC[C@H]2Oc1ccc([C@H]2C[C@@H]2C(=O)O)cc1` [Example 11 in WO 2013/178575, reference compound], it took 12 µM to reach half-maximal inhibition in data set [3] (IC50). Besides, in data set [2], the “Amount of degradation after 2 h” value worked out at 5% and the “Chemical stability” value worked out at 5%. Besides, in data set [4] (setting [6]), the EC50 is 8 nM. The molecule further displayed an IC50 in data set [5] of 17 µM.
On to `Cc1cc(-c2nnn(C)n2)cc(C)c1-c1ccc(F)c2c1CC[C@H]2Oc1ccc([C@H]2C[C@@H]2C(=O)O)cc1` [Example 45 in WO 2013/178575, reference compound], for which the solubility at 24 h in data set [1] (buffer pH 6.8, aqueous buffer) is less than 1 µg/mL.
In data set [1] (aqueous buffer), `Cc1cc(-c2nnn(C)n2)cc(C)c1-c1ccc(F)c2c1CC[C@H]2Nc1cnc([C@H]2C[C@@H]2C(=O)O)cn1` [Example 35] showed a solubility at 24 h of 34 µg/mL (≈ 68.1 µM). In addition, in data set [3], the midpoint of inhibition, the IC50, lay at 21 µM. For the same molecule, in data set [2], the “Amount of degradation after 2 h” value was less than 1% and the “Chemical stability” value is reported as less than 1%. Besides, the EC50 in data set [4] (setting [6]) came out at 2 nM. The molecule further displayed an IC50 in data set [5] of 32 µM.
As to `Cc1cc(C(=O)NCC(C)(C)O)cc(C)c1-c1ccc(F)c2c1CC[C@H]2Oc1ccc([C@H]2C[C@@H]2C(=O)O)cc1` [Example 15 in WO 2013/178575, reference compound], in data set [2], the “Amount of degradation after 2 h” value is on record as 3%.
Still for that read-out and setting: in the case of `Cc1cccc(C)c1-c1ccc(F)c2c1CC[C@H]2Oc1ccc(C2CC2C(=O)O)cc1` (stereo partly drawn) [Example 33 in WO 2013/178575, reference compound] it was 8%.
For the molecule `Cc1cc(OCCCS(C)(=O)=O)cc(C)c1-c1ccc(F)c2c1CC[C@H]2Nc1cnc([C@H]2C[C@@H]2C(=O)O)cn1` [Example 4, (1S,2S)-2-(5-{(R)-7-Fluoro-4-[4-(3-methanesulfonyl-propoxy)-2,6-dimethyl-phenyl]-indan-1-ylamino}-pyrazin-2-yl)-cyclopropanecarboxylic acid], in data set [1] (buffer pH 6.8, aqueous buffer), the concentration in solution (solubility at 24 h) was 92 µg/mL (≈ 166 µM). The concentration for half-maximal inhibition (IC50) in data set [3] and in data set [5] was greater than 50 µM throughout. Further, the “Amount of degradation after 2 h” value in data set [2] is reported as less than 0.5%. Further, the “Chemical stability” value in data set [2] is less than 0.5%. Further, the EC50 in data set [4] (setting [7]) and in data set [4] (setting [6]) was 8 nM in each case.
For the molecule `O=C(O)[C@H]1C[C@@H]1c1cnc(N[C@@H]2CCc3c(-c4c(F)cc(F)cc4F)ccc(F)c32)cn1` [Example 50], the EC50 in data set [4] (setting [7]) was 74 nM.
As for `Cc1cc(OCCC(C)(C)O)cc(C)c1-c1cccc2c1CC[C@H]2Nc1cnc([C@H]2C[C@@H]2C(=O)O)cn1` [Example 7, (1S,2S)-2-(5-{(R)-4-[4-(3-Hydroxy-3-methyl-butoxy)-2,6-dimethyl-phenyl]-indan-1-ylamino}-pyrazin-2-yl)-cyclopropanecarboxylic acid], in data set [2], the “Amount of degradation after 2 h” value is given as less than 1%. For the same molecule, in data set [4] (setting [7]), the EC50 was determined as 4 nM.
In the case of `CCc1cccc(CC)c1-c1ccc(F)c2c1CC[C@H]2Nc1cnc([C@H]2C[C@@H]2C(=O)O)cn1` [Example 49], the EC50 in data set [4] (setting [7]) came out at 4 nM.
The same measure, in the same setting: in the case of `Cc1cc(-c2ccnn2C)cc(C)c1-c1ccc(F)c2c1CC[C@H]2Nc1cnc([C@H]2C[C@@H]2C(=O)O)cn1` [Example 36] it was 12 nM; in that of `Cc1cc(OC2CCOCC2)cc(C)c1-c1ccc(F)c2c1CC[C@H]2Nc1cnc([C@H]2C[C@@H]2C(=O)O)cn1` [Example 31], 9 nM.
As to `CNC(=O)c1cc(C)c(-c2ccc(F)c3c2CC[C@H]3Nc2cnc([C@H]3C[C@@H]3C(=O)O)cn2)c(C)c1` [Example 45], in data set [4] (setting [7]), the EC50 was 23 nM.
Take `Cc1c(C#N)cccc1-c1ccc(F)c2c1CC[C@H]2Oc1ccc([C@H]2C[C@@H]2C(=O)O)cc1` [Example 54 in WO 2013/178575, reference compound]: the “Amount of degradation after 2 h” value in data set [2] turned out to be 2.5%^.
In the case of `Cc1cc(OCC2CCOC2)cc(C)c1-c1ccc(F)c2c1CC[C@H]2Nc1cnc([C@H]2C[C@@H]2C(=O)O)cn1` (stereo partly drawn) [Example 43], the EC50 in data set [4] (setting [7]) stood at 18 nM.
Turning to `Cc1cc(OCCC(C)(C)O)cc(C)c1-c1ccc(F)c2c1CC[C@H]2Nc1cnc([C@H]2C[C@@H]2C(=O)O)cn1` [Example 2, (1S,2S)-2-(5-{(R)-7-Fluoro-4-[4-(3-hydroxy-3-methyl-butoxy)-2,6-dimethyl-phenyl]-indan-1-ylamino}-pyrazin-2-yl)-cyclopropanecarboxylic acid], the solubility at 24 h in data set [1] (buffer pH 6.8, aqueous buffer) worked out at 87 µg/mL (≈ 167 µM). Besides, the 50% inhibitory concentration (IC50) in data set [3] and in data set [5] was greater than 50 µM each time. For the same molecule, the “Amount of degradation after 2 h” value in data set [2] is reported as less than 0.5%. The “Chemical stability” value in data set [2] was less than 0.5%. Also, the EC50 in data set [4] (setting [7]) and in data set [4] (setting [6]) was 4 nM each time.
With `Cc1cc(OCC(=O)O)cc(C)c1-c1ccc(F)c2c1CC[C@H]2Nc1cnc([C@H]2C[C@@H]2C(=O)O)cn1` [Example 48], the EC50 in data set [4] (setting [7]) was found to be 839 nM.
On to `Cc1cc(-c2cc(=O)n(C)cn2)cc(C)c1-c1ccc(F)c2c1CC[C@H]2Nc1cnc([C@H]2C[C@@H]2C(=O)O)cn1` [Example 11], for which the EC50 in data set [4] (setting [7]) was determined as 6 nM.
